# Reference: patent US7179832B2, “Glycogen synthase kinase 3β inhibitor, composition and process for the preparation thereof” (Crystalgenomics, Inc., priority 2003, dated 2007)
# Target: GSK-3β (Homo sapiens, UniProt P49841)
# Test: Assay for GSK-3β inhibiting activity (32P-ATP, phospho-CREB peptide substrate, filter paper, CPM)
# Format: biochemical
# Settings: GSK-3β inhibiting activity; 100 nM GSK-3β protein, 100 μM phospho-CREB peptide, 100 μM ATP, 30° C. for 1 hour; read-out: IC50
# Protocol: Assay for GSK-3β inhibiting activity
# First, PCR (polymerase chain reaction) was carried out using human DNA as a template as well as primers which were designed to correspond to the 3′- and 5′ ends of the polynucleotide coding human GSK-3β gene (Genbank Accession No.: L33801). The BamH1/XhoI fragment of the amplified PCR product thus obtained was inserted into the pGex vector between the BamH1 and XhoI sites, and the vector obtained was transformed into E. coli BL21(DE3). The transformed cells thus obtained was incubated in […] (1% Bacto-trypton, 0.5% yeast extract, 1% NaCl) containing ampicillin ([…]) until the optical density at 600 nm reached about 0.5. The cultured mixture was cooled to 18° C. and isopropyl β-D-thiogalacto-pyranoside (IPTG) was added thereto to a final concentration of 0.5 mM. After 16 hours, the resultant was centrifuged at 10,000×g for 10 min, the collected cells were suspended in a buffer solution (30 mM Tris-HCl (pH 7.5), 100 mM NaCl, 5% glycerol, 2 mM DTT) and the cells were disrupted using Sonic Dismembrator (Fisher, U.S.A.) in a ice bath. The resulting solution was centrifuged at 16,000 rpm for 30 minutes. […] The purified GSK-3β protein was diluted in a buffer solution (20 mM HEPES (pH 7.5), 5% glycerol, 2 mM DTT) to a final concentration of 50 mM NaCl and the resulting solution was subjected to mono S column chromatography (eluent: linear gradient from 0M to 1M NaCl buffer) using mono S column (Pharmacia Biotech, U.S.A.) equilibrated in the same buffer solution to obtain GSK-3β protein.
# The reaction was stopped by adding 5 μl of 5% phosphoric acid to 25 μl of the resulting solution. The resulting mixture was centrifuged at 15,000 rpm for 10 min, 20 μl of the supernatant was added dropwise to Whatman p81 filter paper, and then, the resulting filter paper was washed with 0.5% phosphate buffer for 10 min. The filter paper was further washed 3 times and the enzymatic activity was determined by examining the extent of phospho-CREB peptide phosphorylation which is represented by the unit of count per minute (CPM), measured with a β-counter (Packard, USA).
# The GSK-3β inhibiting activity was then calculated in accordance with the following equation:
# [formula] wherein the blank represents a value obtained without the use of the enzyme and the compound of the present invention, and the control, in the absence of the compound of the present invention.
# Chain of GSK-3β (P49841 whole entry): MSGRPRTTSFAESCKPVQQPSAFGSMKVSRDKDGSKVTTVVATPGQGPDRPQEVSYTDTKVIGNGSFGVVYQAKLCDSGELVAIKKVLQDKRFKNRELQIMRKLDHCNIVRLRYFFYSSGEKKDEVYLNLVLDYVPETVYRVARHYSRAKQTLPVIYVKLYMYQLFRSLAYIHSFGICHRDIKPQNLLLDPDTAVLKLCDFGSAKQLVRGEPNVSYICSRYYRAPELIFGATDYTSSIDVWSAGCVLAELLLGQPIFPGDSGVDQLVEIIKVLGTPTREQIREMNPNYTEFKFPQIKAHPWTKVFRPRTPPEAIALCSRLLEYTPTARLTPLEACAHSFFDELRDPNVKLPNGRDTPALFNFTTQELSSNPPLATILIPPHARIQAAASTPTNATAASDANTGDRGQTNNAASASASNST
row,SMILES,IC50
1,CS(=O)(=O)Nc1ccc(NCCNC(=O)c2ccc(O)c3[nH]c(-c4ccc(F)cc4Cl)nc23)nc1 [Compound 152],0.24 µM
2,Cc1ccc(S(=O)(=O)Nc2ccc(NCCNC(=O)c3ccc(O)c4[nH]c(-c5ccc(F)cc5Cl)nc34)nc2)cc1 [Compound 153],0.05 µM
3,O=C(NCCc1c[nH]cn1)c1ccc(O)c2[nH]c(-c3ccc(F)cc3Cl)nc12 [Compound 154],> 1 µM
4,Cc1ccc(S(=O)(=O)Nc2ccc(CCNC(=O)c3ccc(O)c4[nH]c(-c5ccc(F)c(Cl)c5)nc34)cc2)cc1 [Compound 160],> 1 µM
5,CCCCNC(=O)c1ccc(O)c2[nH]c(-c3ccccc3)nc12 [Compound 162],0.24 µM
6,NCCCNC(=O)c1ccc(O)c2[nH]c(-c3ccccc3)nc12 [Compound 163],> 1 µM
7,O=C(NCCCN1CCCC1=O)c1ccc(O)c2[nH]c(-c3ccccc3)nc12 [Compound 164],0.84 µM
8,O=C(NCCCn1ccnc1)c1ccc(O)c2[nH]c(-c3ccccc3)nc12 [Compound 165],0.08 µM
9,O=C(NCCCN1CCOCC1)c1ccc(O)c2[nH]c(-c3ccccc3)nc12 [Compound 166],> 1 µM
10,Cc1nccn1CCCNC(=O)c1ccc(O)c2[nH]c(-c3ccccc3)nc12 [Compound 167],0.1 µM
11,CCCCNC(=O)c1ccc(O)c2[nH]c(-c3ccc(Cl)cc3)nc12 [Compound 168],> 1 µM
12,O=C(NCCCN1CCCC1=O)c1ccc(O)c2[nH]c(-c3ccc(Cl)cc3)nc12 [Compound 169],> 1 µM
13,O=C(NCCCn1ccnc1)c1ccc(O)c2[nH]c(-c3ccc(Cl)cc3)nc12 [Compound 170],0.19 µM
14,O=C(NCCCN1CCOCC1)c1ccc(O)c2[nH]c(-c3ccc(Cl)cc3)nc12 [Compound 171],> 1 µM
15,O=C(NCCCn1ccnc1-c1ccccc1)c1ccc(O)c2[nH]c(-c3ccc(Cl)cc3)nc12 [Compound 172],0.8 µM

# The remaining lines, values ahead:
row,IC50,SMILES
1,0.043 µM,Cc1ccc(S(=O)(=O)Nc2ccc(CCNC(=O)c3ccc(O)c4[nH]c(-c5ccc(F)cc5F)nc34)cc2)cc1 [Compound 141]
2,0.001 µM,CCS(=O)(=O)Nc1ccc(CCNC(=O)c2ccc(O)c3[nH]c(-c4ccc(F)cc4F)nc23)cc1 [Compound 142]
3,0.002 µM,CS(=O)(=O)Nc1ccc(CCNC(=O)c2ccc(O)c3[nH]c(-c4ccc(F)cc4Cl)nc23)cc1 [Compound 143]
4,0.006 µM,Cc1ccc(S(=O)(=O)Nc2ccc(CCNC(=O)c3ccc(O)c4[nH]c(-c5ccc(F)cc5Cl)nc34)cc2)cc1 [Compound 144]
5,0.07 µM,CC(=O)Nc1ccc(CCNC(=O)c2ccc(O)c3[nH]c(-c4ccc(F)cc4Cl)nc23)cc1 [Compound 146]
6,0.21 µM,O=C(NCCN1CCOCC1)c1ccc(O)c2[nH]c(-c3ccc(F)cc3Cl)nc12 [Compound 147]
7,> 1 µM,CN1CCN(CCNC(=O)c2ccc(O)c3[nH]c(-c4ccc(F)cc4Cl)nc23)CC1 [Compound 148]
8,0.14 µM,CCCCC(=O)Nc1ccc(CCNC(=O)c2ccc(O)c3[nH]c(-c4ccc(F)cc4Cl)nc23)cc1 [Compound 149]
9,0.06 µM,O=C(NCCc1ccc(O)cc1)c1ccc(O)c2[nH]c(-c3ccc(F)cc3Cl)nc12 [Compound 150]
10,0.28 µM,CN1CCN(CC(=O)Nc2ccc(CCNC(=O)c3ccc(O)c4[nH]c(-c5ccc(F)cc5Cl)nc34)cc2)CC1 [Compound 156]
11,0.49 µM,CCN1CCN(CC(=O)Nc2ccc(CCNC(=O)c3ccc(O)c4[nH]c(-c5ccc(F)cc5Cl)nc34)cc2)CC1 [Compound 157]
12,0.23 µM,CN(C)CC(=O)Nc1ccc(CCNC(=O)c2ccc(O)c3[nH]c(-c4ccc(F)cc4Cl)nc23)cc1 [Compound 158]
13,0.68 µM,CCN(CC)CC(=O)Nc1ccc(CCNC(=O)c2ccc(O)c3[nH]c(-c4ccc(F)cc4Cl)nc23)cc1 [Compound 159]
14,0.09 µM,CS(=O)(=O)Nc1ccc(CCNC(=O)c2ccc(O)c3[nH]c(-c4ccc(F)c(Cl)c4)nc23)cc1 [Compound 161]

# Same assay, conditions: IC50 (μM)
row,IC50,SMILES
1,0.002 µM,CCS(=O)(=O)Nc1ccc(CCNC(=O)c2ccc(O)c3nc(-c4ccc(F)cc4Cl)[nH]c23)cc1 [Compound 145]
